# According to US9340521B2, “Method for dual inhibition of SGLT1 and SGLT2 using diphenylmethane derivatives” (GREEN CROSS CORPORATION, priority 2013, dated 2016):
# What was measured:
# Human SGLT1 (hSGLT1) = Human SGLT1 (hSGLT1) (Homo sapiens (Human), UniProt P13866); assay: Inhibitory effects on human SGLT1 activities (14C-AMG uptake, sodium-dependent glucose transport assay); type: cell-based; conditions: 37° C. for 2 h, single determinations
# Protocol: Test 3: Inhibitory Effects on Human SGLT1 Activities
# (§1) For sodium-dependent glucose transport assay, cells expressing […] were seeded into a 96-well culture plate at a density of 5×10^4 cells/well in RPMI medium 1640 containing 10% fetal bovine serum. The cells were used 1 day after plating. They were incubated in pretreatment buffer (10 mM HEPES, 5 mM Tris, 140 mM choline chloride, 2 mM KCl, 1 mM CaCl2, and 1 mM MgCl2, pH 7.4) at 37° C. for 10 min. They were then incubated in uptake buffer (10 mM HEPES, 5 mM Tris, 140 mM NaCl, 2 mM KCl, 1 mM CaCl2, 1 mM MgCl2, and 1 mM ^14C-nonlabeled AMG pH 7.4) containing ^14C-labeled (8 μM) and inhibitor or dimethyl sulfoxide (DMSO) vehicle at 37° C. for 2 h. Cells were washed twice with washing buffer (pretreatment buffer containing 10 mM AMG at room temperature) and then the radioactivity was measured using a liquid scintillation counter. IC50 was determined by nonlinear regression analysis using GraphPad PRISM.
# Human SGLT2 (hSGLT2) = Human SGLT2 (hSGLT2) (Homo sapiens (Human), UniProt P31639); assay: Inhibitory effects on human SGLT2 activities (14C-AMG uptake, sodium-dependent glucose transport assay); type: cell-based; conditions: hSGLT2-expressing CHO cells, 37° C. for 2 h, single determinations
# Excerpt: Test 1: Cloning and Cell Line Construction for Human SGLT2
# Human SGLT2 (hSGLT2) gene was amplified by PCR from cDNA-Human Adult Normal Tissue Kidney (Invitrogen). The hSGLT2 sequence was cloned into pcDNA3.1(+) for mammalian expression and stably transfected into chinese hamster ovary (CHO) cells. SGLT2-expressing clones were selected based on resistance to G418 antibiotic (Geneticin) and activity in the ^14C-α-methyl-D-glucopyranoside (^14C-AMG) uptake assay.
# Test 2: Inhibitory Effects on Human SGLT2 Activities
# as §1, with “^14C-labeled AMG” for “^14C-labeled”, “the inventive compound” for “inhibitor”, “PRISM [Katsuno, K. et al. J. Pharmacol. Exp. Ther. 2007, 320, 323-330; Han, S. et al. Diabetes, 2008, 57, 1723-1729].” for “PRISM.”
# Human SGLT1 (hSGLT1), sequence (P13866 whole entry): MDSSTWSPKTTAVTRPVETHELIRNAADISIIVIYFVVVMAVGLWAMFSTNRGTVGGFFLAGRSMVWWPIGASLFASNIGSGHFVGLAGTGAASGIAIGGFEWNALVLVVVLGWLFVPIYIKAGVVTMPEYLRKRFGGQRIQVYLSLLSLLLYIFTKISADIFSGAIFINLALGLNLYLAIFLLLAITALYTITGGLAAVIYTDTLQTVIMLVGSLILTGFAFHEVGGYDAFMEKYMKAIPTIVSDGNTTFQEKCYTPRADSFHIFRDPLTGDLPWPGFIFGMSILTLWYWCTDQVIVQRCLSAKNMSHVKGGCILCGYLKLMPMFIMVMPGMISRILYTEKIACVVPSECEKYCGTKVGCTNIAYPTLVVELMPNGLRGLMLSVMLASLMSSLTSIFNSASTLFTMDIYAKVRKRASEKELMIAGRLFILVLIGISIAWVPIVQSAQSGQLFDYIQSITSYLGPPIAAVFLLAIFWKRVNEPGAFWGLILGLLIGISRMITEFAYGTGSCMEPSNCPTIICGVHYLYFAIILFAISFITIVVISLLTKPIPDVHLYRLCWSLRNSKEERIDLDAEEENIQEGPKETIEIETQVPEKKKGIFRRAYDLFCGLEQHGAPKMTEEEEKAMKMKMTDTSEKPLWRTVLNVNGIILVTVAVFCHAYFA
# Human SGLT2 (hSGLT2), sequence (P31639 whole entry): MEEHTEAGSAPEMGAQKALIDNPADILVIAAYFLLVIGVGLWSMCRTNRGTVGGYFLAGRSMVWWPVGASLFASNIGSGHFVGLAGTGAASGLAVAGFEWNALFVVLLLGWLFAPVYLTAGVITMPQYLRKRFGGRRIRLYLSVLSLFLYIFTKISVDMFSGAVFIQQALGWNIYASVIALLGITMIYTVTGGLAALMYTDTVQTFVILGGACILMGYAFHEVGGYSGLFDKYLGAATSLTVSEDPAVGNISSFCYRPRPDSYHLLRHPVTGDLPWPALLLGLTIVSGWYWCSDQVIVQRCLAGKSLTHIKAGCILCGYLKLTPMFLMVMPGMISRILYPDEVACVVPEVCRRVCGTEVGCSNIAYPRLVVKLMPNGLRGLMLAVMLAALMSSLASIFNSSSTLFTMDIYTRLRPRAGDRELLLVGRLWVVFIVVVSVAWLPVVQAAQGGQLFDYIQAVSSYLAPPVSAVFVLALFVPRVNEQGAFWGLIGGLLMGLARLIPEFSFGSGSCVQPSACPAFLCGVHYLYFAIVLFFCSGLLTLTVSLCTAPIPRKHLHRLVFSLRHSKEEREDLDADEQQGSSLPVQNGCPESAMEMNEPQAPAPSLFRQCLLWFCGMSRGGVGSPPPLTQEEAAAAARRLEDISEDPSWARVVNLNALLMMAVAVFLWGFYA
IC50 (Human SGLT1 (hSGLT1)) [nM],IC50 (Human SGLT2 (hSGLT2)) [nM],SMILES
78.1,2.1,"COc1ccc(Cc2cc([C@@H]3O[C@H](CO)[C@@H](O)[C@H](O)[C@H]3O)c3c(c2Cl)OCCC3)cc1 [Compound E023, (2S,3R,4R,5S,6R)-2-(8-Chloro-7-(4-methoxybenzyl)chroman-5-yl)-6-(hydroxymethyl)tetrahydro-2H-pyran-3,4,5-triol]"
89.4,1.2,"COc1ccc(Cc2cc([C@@H]3O[C@H](CO)[C@@H](O)[C@H](O)[C@H]3O)c3c(c2Cl)OCO3)cc1 [Compound E025, (2S,3R,4R,5S,6R)-2-(7-Chloro-6-(4-methoxybenzyl)benzo[d][1,3]dioxol-4-yl)-6-(hydroxymethyl)tetrahydro-2H-pyran-3,4,5-triol]"
21.1,0.47,"COc1ccc(Cc2cc([C@@H]3O[C@H](SC)[C@@H](O)[C@H](O)[C@H]3O)c3c(c2Cl)CCCO3)cc1 [Compound E029, (2S,3R,4R,5S,6R)-2-(5-Chloro-6-(4-methoxybenzyl)chroman-8-yl)-6-(methylthio)tetrahydro-2H-pyran-3,4,5-triol]"
171,2.3,"COc1ccc(Cc2cc([C@@H]3O[C@H](CO)[C@@H](O)[C@H](O)[C@H]3O)c3c(c2Cl)CCS3)cc1 [Compound E030, (2S,3R,4R,5S,6R)-2-(4-Chloro-5-(4-methoxybenzyl)-2,3-dihydrobenzo[b]thiophen-7-yl)-6-(hydroxymethyl)tetrahydro-2H-pyran-3,4,5-triol]"
196,2,"CCOc1ccc(Cc2cc([C@@H]3O[C@H](CO)[C@@H](O)[C@H](O)[C@H]3O)c3c(c2Cl)C(C)CO3)cc1 (stereo partly drawn) [Compound E031, (2S,3R,4R,5S,6R)-2-(4-Chloro-5-(4-ethoxybenzyl)-3-methyl-2,3-dihydrobenzofuran-7-yl)-6-(hydroxymethyl)-tetrahydro-2H-pyran-3,4,5-triol]"
16.5,0.73,"COc1ccc(Cc2cc([C@@H]3O[C@H](CO)[C@@H](O)[C@H](O)[C@H]3O)c3c(c2C(F)F)CCC3)cc1 [Compound E032, (2S,3R,4R,5S,6R)-2-(7-(Difluoromethyl)-6-(4-methoxybenzyl)-2,3-dihydro-1H-inden-4-yl)-6-(hydroxymethyl)tetrahydro-2H-pyran-3,4,5-triol]"
27.6,0.9,"COc1ccc(Cc2cc([C@@H]3O[C@H](CO)[C@@H](O)[C@H](O)[C@H]3O)c3c(c2Cl)SCC3)cc1 [Compound E034, (2S,3R,4R,5S,6R)-2-(7-Chloro-6-(4-methoxybenzyl)-2,3-dihydrobenzo[b]thiophen-4-yl)-6-(hydroxymethyl)tetrahydro-2H-pyran-3,4,5-triol]"
10.7,0.55,"COc1ccc(Cc2cc([C@@H]3O[C@H](CO)[C@@H](O)[C@H](O)[C@H]3O)c3c(c2Cl)SCCC3)cc1 [Compound E036, (2S,3R,4R,5S,6R)-2-(8-Chloro-7-(4-methoxybenzyl)thiochroman-5-yl)-6-(hydroxymethyl)tetrahydro-2H-pyran-3,4,5-triol]"
10.5,0.86,"COc1ccc(Cc2cc([C@@H]3O[C@H](CO)[C@@H](O)[C@H](O)[C@H]3O)c3c(c2C)CCCC3)cc1 [Compound E037, (2R,3S,4R,5R,6S)-2-(Hydroxymethyl)-6-(3-(4-methoxybenzyl)-4-methyl-5,6,7,8-tetrahydronaphthalen-1-yl)tetrahydro-2H-pyran-3,4,5-triol]"
9.6,0.6,"COc1ccc(Cc2cc([C@@H]3O[C@H](CO)[C@@H](O)[C@H](O)[C@H]3O)c3c(c2Cl)CCCC3)cc1 [Compound E038, (2S,3R,4R,5S,6R)-2-(4-Chloro-3-(4-methoxybenzyl)-5,6,7,8-tetrahydronaphthalen-1-yl)-6-(hydroxymethyl)tetrahydro-2H-pyran-3,4,5-triol]"
33.2,0.62,"CCOc1ccc(Cc2cc([C@@H]3O[C@H](CO)[C@@H](O)[C@H](O)[C@H]3O)c3c(c2Cl)CCCC3)cc1 [Compound E039, (2S,3R,4R,5S,6R)-2-(4-Chloro-3-(4-ethoxybenzyl)-5,6,7,8-tetrahydronaphthalen-1-yl)-6-(hydroxymethyl)tetrahydro-2H-pyran-3,4,5-triol]"
9.2,1,"Cc1ccc(Cc2cc([C@@H]3O[C@H](CO)[C@@H](O)[C@H](O)[C@H]3O)c3c(c2Cl)OCCO3)cc1 [Compound E042, (2S,3R,4R,5S,6R)-2-(8-chloro-7-(4-methylbenzyl)-2,3-dihydrobenzo[b][1,4]dioxin-5-yl)-6-(hydroxymethyl)tetrahydro-2H-pyran-3,4,5-triol]"

# Further lines, the compound ahead of its results:
SMILES,IC50 (Human SGLT1 (hSGLT1)) [nM],IC50 (Human SGLT2 (hSGLT2)) [nM]
"OC[C@H]1O[C@@H](c2cc(Cc3ccc(C4CC4)cc3)c(Cl)c3c2OCO3)[C@H](O)[C@@H](O)[C@@H]1O [Compound E024, (2S,3R,4R,5S,6R)-2-(7-Chloro-6-(4-cyclopropylbenzyl)benzo[d][1,3]dioxol-4-yl)-6-(hydroxymethyl)tetrahydro-2H-pyran-3,4,5-triol]",53,0.37
"CCc1ccc(Cc2cc([C@@H]3O[C@H](CO)[C@@H](O)[C@H](O)[C@H]3O)c3c(c2Cl)OCO3)cc1 [Compound E026, (2S,3R,4R,5S,6R)-2-(7-Chloro-6-(4-ethylbenzyl)benzo[d][1,3]dioxol-4-yl)-6-(hydroxymethyl)tetrahydro-2H-pyran-3,4,5-triol]",86.9,0.4
"OC[C@H]1O[C@@H](c2cc(Cc3ccc(C4CC4)cc3)c(Cl)c3c2OCCO3)[C@H](O)[C@@H](O)[C@@H]1O [Compound E027, (2S,3R,4R,5S,6R)-2-(8-Chloro-7-(4-cyclopropylbenzyl)-2,3-dihydrobenzo[b][1,4]dioxin-5-yl)-6-(hydroxymethyl)tetrahydro-2H-pyran-3,4,5-triol]",41.9,0.65
"C=Cc1ccc(Cc2cc([C@@H]3O[C@H](CO)[C@@H](O)[C@H](O)[C@H]3O)c3c(c2Cl)OCC3)cc1 [Compound E028, (2S,3R,4R,5S,6R)-2-(7-Chloro-6-(4-vinylbenzyl)-2,3-dihydrobenzofuran-4-yl)-6-(hydroxymethyl)tetrahydro-2H-pyran-3,4,5-triol]",163,0.37
"CCc1ccc(Cc2cc([C@@H]3O[C@H](CO)[C@@H](O)[C@H](O)[C@H]3O)c3c(c2Cl)CCC3)cc1 [Compound E033, (2S,3R,4R,5S,6R)-2-(7-Chloro-6-(4-ethylbenzyl)-2,3-dihydro-1H-inden-4-yl)-6-(hydroxymethyl)tetrahydro-2H-pyran-3,4,5-triol]",57.2,0.63
"CCc1ccc(Cc2cc([C@@H]3O[C@H](CO)[C@@H](O)[C@H](O)[C@H]3O)c3c(c2Cl)SCC3)cc1 [Compound E035, (2S,3R,4R,5S,6R)-2-(7-Chloro-6-(4-ethylbenzyl)-2,3-dihydrobenzo[b]thiophen-4-yl)-6-(hydroxymethyl)tetrahydro-2H-pyran-3,4,5-triol]",53,0.87
"Cc1ccc(Cc2cc([C@@H]3O[C@H](CO)[C@@H](O)[C@H](O)[C@H]3O)c3c(c2Cl)OCO3)cc1 [Compound E040, (2S,3R,4R,5S,6R)-2-(7-Chloro-6-(4-methylbenzyl)benzo[d][1,3]dioxol-4-yl)-6-(hydroxymethyl)tetrahydro-2H-pyran-3,4,5-triol]",94.6,1
"Cc1ccc(Cc2cc3c(c([C@@H]4O[C@H](CO)[C@@H](O)[C@H](O)[C@H]4O)c2)CCC3)cc1 [Compound E041, (2R,3S,4R,5R,6S)-2-(Hydroxymethyl)-6-(6-(4-methylbenzyl)-2,3-dihydro-1H-inden-4-yl)tetrahydro-2H-pyran-3,4,5-triol]",91,8
"CCc1ccc(Cc2cc([C@@H]3O[C@H](CO)[C@@H](O)[C@H](O)[C@H]3O)c3c(c2Cl)CCCC3)cc1 [Compound E043, (2S,3R,4R,5S,6R)-2-(4-Chloro-3-(4-ethylbenzyl)-5,6,7,8-tetrahydronaphthalen-1-yl)-6-(hydroxymethyl)tetrahydro-2H-pyran-3,4,5-triol]",32.6,0.49
